Data on one compound can be found in patent publication US20210220331A1, “INHIBITORS OF IRES-MEDIATED PROTEIN SYNTHESIS” (The Regents of the University of California, priority 2016, published 2021).

The subject of this assay is cyclin D1 or c-MYC mRNA association with eIF-4E. The experiment in a line: eIF-4E immunoprecipitation and qRT-PCR of bound RNA. The assay is classed as cell-based. As to conditions: LN229 cells, 50 nM. The method, then: For immunopurification of eIF4E and bound RNA (21), cells were lysed in buffer containing 50 mM Tris-HCl (pH 7.4), 300 mM NaCl, 0.5% NP-40, 10 mM NaF, 1 mM sodium orthovanidate, 1 mM PMSF, 1.5% aprotinin and SUPERase-IN (ThermoFisher Scientific), 0.025 units/ml, using a Dounce homogenizer at 4° C. Extracts were cleared by centrifugation and immunoprecipitated with eIF4E or control IgG. Beads were washed and obtained RNA was subjected to quantitative RTPCR. For quantitative RT-PCR, extraction of RNA was performed using Trizol (ThermoFisher). Total RNA was then quantified and integrity assessed using an Agilent 2100 Bioanalyzer (Agilent Technology). Total RNA was reverse transcribed with random primers using the RETROscript Kit from ThermoFisher. SYBR Green quantitative PCR was performed in triplicate in 96-well optical plates on an ABI Prism 7000 Sequence Detection System (Life Technologies) according to the manufacturer's instructions. Primer sequences for CCND1, c-MYC and actin are available upon request. […]
(B) Schematic diagrams of the dicistronic constructs used in this study. […] Input and bound fractions were analyzed by immunoblotting using hnRNP A1 antibodies. […] Bound CCND1 or c-MYC RNAs were detected via RT-PCR. […]
In general terms: Real-time PCR tracks product formation cycle by cycle.

Take `COc1ccc(CN2C(=O)C(Cl)=C(Cl)C2=O)c(OC)c1` [Compound C11, reference compound]: the “cyclin D1 or c-MYC mRNA association with eIF-4E” value is on record as “did not affect”.
